One compound from patent US9562031B1, “Phenethyldihydrobenzodioxolones and methods of use” (Sequoia Sciences, Inc., priority 2015, dated 2017) can be followed below.

In general, IC50 refers to the concentration that inhibits the measured activity by half.

For assay [1], the system named is M14 (amelanotic melanoma) cells. Nature of the assay: antiproliferation assay (72 h, CELLTITER 96), M14. Format: cell-based, human. To be noted: Homo sapiens; Table 4. The method, boiled down: (§1)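 Human M14 melanoma and NCI-H460 lung carcinoma cells in RPMI-1640/10% FBS, seeded at 5×10^2–5×10^4 cells/well and adhered overnight, then exposed to seven compound concentrations for 72 h at 37 °C. Viable cells read by CellTiter 96 AQueous (MTS); IC50 = concentration giving 50% of maximal growth inhibition.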

The test system of assay [2] is NCI-H460 (large cell lung carcinoma) cells. The experiment in a line: antiproliferation assay (72 h, CELLTITER 96), NCI-H460. The following applies: Homo sapiens, NCI-H460, Table 4; read-out: NCI-H460 IC50. It is filed as cell-based, human. The method, boiled down: as §1
A further assay deals with A549 cells. Nature of the assay: antiproliferation assay, A549. To be noted: Homo sapiens. Format: cell-based. As for the experimental part:
(§2) For the antiproliferation assay, NCI-H460 (large cell lung carcinoma) or M14 (amelanotic melanoma) cells were grown in RPMI-1640 with 10% FBS supplemented with L-glutamine and HEPES. Cells were seeded into 96-well plates at 5×10^2 to 5×10^4 cells/well and allowed to adhere overnight; the medium was then removed. A stock solution of test compound in DMSO was diluted in medium to generate a series of working solutions. Aliquots (100 μl) of the working solutions were then added to the appropriate test wells to expose cells to the final concentrations of compound in a total volume of 100 μl. Seven different concentrations were tested, with 2-5 wells per concentration. Camptothecin was used as a positive control; wells containing vehicle without compound were used as negative controls. Plates were kept for 72 h in a 37° C., 5% CO2 incubator. After incubation, viable cells were detected with the CELLTITER 96 AQueous Non-Radioactive Cell Proliferation Assay (Promega), and IC50 values were determined using GraphPad Prism 5 software.
(§3) Antiproliferation of several of the active compounds was tested against additional cell lines.

Another assay deals with HCT-116 cells. Nature of the assay: antiproliferation assay, HCT-116. Format: cell-based. The following applies: Homo sapiens. As for the experimental part:
as §2, §3

The next assay deals with LOX-IMVI cells. The experiment in a line: antiproliferation assay, LOX-IMVI. Format: cell-based. The following applies: Homo sapiens. As to the method: as §2, §3
Another assay concerns PC-3 cells. The experiment in a line: antiproliferation assay, PC-3. Format: cell-based. To be noted: Homo sapiens. As to the method: as §2, §3
The next assay relates to SK-Mel-2 cells. The experiment in a line: antiproliferation assay, SK-Mel-2. It is filed as cell-based. To be noted: Homo sapiens. As to the method:
as §2, §3

In the next assay the test system is SK-Mel-5 cells. Nature of the assay: antiproliferation assay, SK-Mel-5. Format: cell-based. To be noted: Homo sapiens. As for the experimental part:
as §2, §3

Another assay has as its system U-87 MG cells. Nature of the assay: antiproliferation assay, U-87 MG. It is filed as cell-based. The following applies: Homo sapiens. As for the experimental part:
as §2, §3

In another assay the test system is UACC-62 cells. The experiment in a line: antiproliferation assay, UACC-62. It is filed as cell-based. To be noted: Homo sapiens. As for the experimental part:
as §2, §3

For `C=CC[C@H]1C[C@]2([C@H](C)Cc3ccc(OC)cc3)OCOC2=CC1=O` [Compound 26, (6S,7aR)-6-allyl-7a-((R)-1-(4-methoxyphenyl)propan-2-yl)-7,7a-dihydrobenzo[d][1,3]dioxol-5(6H)-one], the IC50 in assay [1] stood at 81 nM; in [2] it was 75 nM; in the assay on A549 cells it was 110 nM; with HCT-116 cells it was 22 nM; with LOX-IMVI cells, 150 nM; with PC-3 cells, 66 nM. Further, the IC50 in the assay on SK-Mel-2 cells was determined as 110 nM; in the assay with SK-Mel-5 cells it was 34 nM; in the assay with U-87 MG cells it was 100 nM; in the assay on UACC-62 cells it was 96 nM.
